By IC50 is commonly meant the concentration that gives 50% inhibition. A low value points to higher potency.

Where a SMILES comes first, the peptide text is derived from it. Bridges are numbered along the chain shown (N, C = ends). Where no end group is shown, it is not given here. [ ]: non-standard residue; d: D form. SeMet = C[Se]CC[C@H](N)C(=O)O

Assay [1] deals with T1, human PAC1 receptor (Homo sapiens, UniProt P41586).
T1 construct: SHSY-5Y (human neuroblastoma cell line) and RG-2 (rat glioma cell line) cells endogenously express human and rat PAC1 receptors, respectively; endogenous in cells; host or cells: SHSY-5Y human neuroblastoma cells
T1 sequence (P41586 21-468): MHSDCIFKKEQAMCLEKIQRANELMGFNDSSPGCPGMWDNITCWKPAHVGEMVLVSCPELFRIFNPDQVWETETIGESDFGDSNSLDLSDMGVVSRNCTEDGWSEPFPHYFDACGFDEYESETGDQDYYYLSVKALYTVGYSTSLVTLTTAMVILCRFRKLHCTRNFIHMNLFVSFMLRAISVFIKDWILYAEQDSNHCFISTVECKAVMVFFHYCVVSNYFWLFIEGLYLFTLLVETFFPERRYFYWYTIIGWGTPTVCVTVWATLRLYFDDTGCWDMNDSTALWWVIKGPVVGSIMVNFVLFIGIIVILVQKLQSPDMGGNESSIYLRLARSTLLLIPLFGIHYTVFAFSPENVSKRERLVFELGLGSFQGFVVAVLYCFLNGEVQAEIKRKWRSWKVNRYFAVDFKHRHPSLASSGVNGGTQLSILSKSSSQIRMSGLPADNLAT
Description: LANCE Ultra cAMP accumulation antagonist assay in SHSY-5Y cells.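 Note: inhibition of cAMP accumulation evoked by PAC1 agonist at its EC80 in SHSY-5Y cells endogenously expressing receptor, 30 min preincubation then 15 min agonist, TR-FRET readout.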 It counts as cell-based.
Description: In order to determine the potency of peptide antagonists at the PAC1 receptor, functional cAMP accumulation assays using LANCE Ultra cAMP assay kit to measure the agonist and antagonist activity of PAC1 peptides were used. SHSY-5Y (human neuroblastoma cell line) and RG-2 (rat glioma cell line) cells endogenously express human and rat PAC1 receptors, respectively. Agonist activity of PAC1 peptides was tested by incubating with SHSY-5Y at 2,000 cells per well or RG-2 at 5,000 cells per well for 15 minutes at room temperature. PAC1 receptor agonist PACAP38 or maxadilan was included as a positive control. The reaction was stopped by adding detection mixture, europium (Eu) chelate-labeled cAMP tracer and cAMP-specific monoclonal antibodies labeled with the ULight™ dye, to all wells followed by a 60-minute incubation at room temperature. The assay plates were then read on an EnVision instrument at an emission wavelength of 665 and 615 nm and data were analyzed using Genedata Screener or GraphPad Prism software. A similar procedure was used in the antagonist assays by using a fixed concentration of PAC1 agonist. The concentrations of agonists were chosen based on their ECK) values at PAC1 receptors in SHSY-5Y or RG-2 cells. SHSY-5Y or RG-2 cells were added into 96-well half-area white plates. Serially diluted PAC1 peptides at ten concentrations were added and incubated for 30 minutes at room temperature. PAC1 agonist at EC80 concentration was then added and further incubated for 15 minutes at room temperature. The reaction was stopped by adding detection mixture to all wells followed by a 60-minute incubation at room temperature. The assay plates were read and analyzed the same way as that of agonist assay. Cells, agonists, and PAC1 peptides were prepared in freshly made assay buffer (F-12, 0.5 mM IBMX, 0.1 or 0.4% BSA (pH 7.4)). Detection mixture was made by mixing a 1/50 dilution of the Eu-cAMP tracer stock solution in cAMP Detection Buffer and a 1/150 dilution of the ULight-anti-cAMP stock solution in cAMP Detection Buffer. Europium (Eu) chelate-labeled cAMP tracer, cAMP-specific monoclonal antibodies labeled with the ULight™ dye, BSA, and detection buffer were provided in LANCE Ultra cAMP Kit from PerkinElmer

The target of assay [2] is T2, rat PAC1 receptor (Rattus norvegicus, UniProt P32215).
T2 construct: SHSY-5Y (human neuroblastoma cell line) and RG-2 (rat glioma cell line) cells endogenously express human and rat PAC1 receptors, respectively; endogenous in cells; host or cells: RG-2 rat glioma cells
T2 sequence (P32215 20-523): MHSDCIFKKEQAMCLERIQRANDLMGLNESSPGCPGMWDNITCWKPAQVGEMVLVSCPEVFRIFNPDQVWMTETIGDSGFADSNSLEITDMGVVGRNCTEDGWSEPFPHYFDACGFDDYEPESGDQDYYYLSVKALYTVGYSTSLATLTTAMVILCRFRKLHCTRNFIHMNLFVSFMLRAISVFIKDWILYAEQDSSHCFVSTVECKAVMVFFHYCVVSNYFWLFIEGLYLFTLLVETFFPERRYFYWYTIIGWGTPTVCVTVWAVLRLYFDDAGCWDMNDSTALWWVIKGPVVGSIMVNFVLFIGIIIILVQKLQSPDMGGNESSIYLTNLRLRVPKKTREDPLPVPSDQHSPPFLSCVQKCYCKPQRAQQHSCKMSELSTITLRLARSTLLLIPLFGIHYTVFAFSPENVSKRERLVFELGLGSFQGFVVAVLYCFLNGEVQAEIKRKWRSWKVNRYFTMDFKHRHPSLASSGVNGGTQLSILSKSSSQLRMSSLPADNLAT
Nature of the assay: LANCE Ultra cAMP accumulation antagonist assay in RG-2 cells.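 Note: RG-2 rat glioma cells endogenously expressing PAC1, test peptide preincubated 30 min, then PAC1 agonist added at its EC80 for 15 min, cAMP accumulation read by LANCE Ultra.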 The assay is classed as cell-based. In general terms: Time-resolved FRET reads energy transfer from a long-lived donor to a nearby acceptor.

As to “CDATCQFRKAIDDCWMLSWHANVPGSVFKACMKQKKKEFKAGH (disulfide 1-5, 14-31) [compound 111]”, the IC50 in assay [1] and in assay [2] was 0.01 to 1 nM in each case. With “CDATCQFRKAIDDCARQAHHSNVPGSVFKACLKQKKKEWKAGH (disulfide 1-5, 14-31) [compound 41]”, the IC50 in assay [1] and in assay [2] was 0.01 to 1 nM in each case. Take “CDATCQFRKAIDDCQKQAHHSNVPGSVFKACMVQKKKEFKAG-NH2 (disulfide 1-5, 14-31) [compound 102]”: the IC50 in assay [1] fell in the range of 1 to 100 nM; in assay [2], 0.01 to 1 nM. The matching figures for “CDATCQFRKAIDDCFTWAWHSNVPGSVFKACMKQKKKEFKAG-NH2 (disulfide 1-5, 14-31) [compound 74]”: 0.01 to 1 nM and 0.01 to 1 nM. For “CDATCQFRKAIDDCARQAHHSNVPGSVWKACMKQKKKEWKAGH (disulfide 1-5, 14-31) [SEQ ID NO 105]”, in that order: 0.01 to 1 nM and 0.01 to 1 nM. Turning to “CDATCQFRKAIDDCQKQAHHSNVPGSVFKACMKQKKKEFKA-NH2 (disulfide 1-5, 14-31) [compound 214]”, the IC50 in assay [1] was 1 to 100 nM; in assay [2], 0.01 to 1 nM. As to “CDATCQFRKAIDDCQKQAHHSNVPGSVFKACVLQKKKEFKAG-NH2 (disulfide 1-5, 14-31) [compound 93]”, the IC50 in assay [1] and in assay [2] was 1 to 100 nM throughout. Take “CDATCQFRKAIDDCVRQAHHSNVPGSVFKACMKQKKKEWKAGH (disulfide 1-5, 14-31) [SEQ ID NO 156]”: the IC50 in assay [1] and in assay [2] was 0.01 to 1 nM in each case.

Consider “CDATCQFRKAIDDCYYRSHSNVPGSVFKACMKQKKKEFKAG-NH2 (disulfide 1-5, 14-30) [compound 42]”, for which the IC50 in assay [1] and in assay [2] was 0.01 to 1 nM each time. Take “CDATCQFRKAIDECARQAHHSNVPGSVFKACMKQKKKEWKAGH (disulfide 1-5, 14-31) [compound 25]”: the results for the IC50 in assay [1] and in assay [2] were 0.01 to 1 nM and less than 0.01 nM, respectively. Turning to “CDATCQFRKAIDDCARQAHHSNVPGSVFKAC[SeMet]KQKKKEWKAGH (disulfide 1-5, 14-31) [compound 7]”, the IC50 in assay [1] and in assay [2] was 0.01 to 1 nM each time. As to “CDATCQFRKAIDDCVYSAWHANVPGSVFKACMKQKKKEFKAG-NH2 (disulfide 1-5, 14-31) [compound 137]”, the IC50 in assay [1] and in assay [2] was 0.01 to 1 nM each time. For the compound `CC[C@H](C)[C@H](NC(=O)[C@H](C)NC(=O)[C@H](CCCCN)NC(=O)[C@H](CCCNC(=N)N)NC(=O)[C@H](Cc1ccccc1)NC(=O)[C@H](CCC(N)=O)NC(=O)[C@@H]1CSSC[C@H](N)C(=O)N[C@@H](CC(=O)O)C(=O)N[C@@H](C)C(=O)N[C@@H]([C@@H](C)O)C(=O)N1)C(=O)N[C@@H](CC(=O)O)C(=O)N[C@@H](CC(=O)O)C(=O)N[C@H]1CSSC[C@@H](C(=O)N[C@@H](CCSC)C(=O)N[C@@H](CCCCN)C(=O)N[C@@H](CCC(N)=O)C(=O)N[C@@H](CCCCN)C(N)=O)NC(=O)[C@H](CCC(=O)O)NC(=O)[C@H](CCCCN)NC(=O)[C@H](Cc2ccccc2)NC(=O)[C@H](C(C)C)NC(=O)[C@H](CO)NC(=O)[C@H](CC(N)=O)NC(=O)CNC(=O)[C@@H]2CCCN2C(=O)[C@H](C(C)C)NC(=O)[C@H](CC(N)=O)NC(=O)[C@H](CO)NC(=O)[C@H](Cc2c[nH]cn2)NC(=O)[C@H](Cc2c[nH]cn2)NC(=O)[C@H](C)NC(=O)[C@H](CCC(N)=O)NC(=O)[C@H](CCCCN)NC(=O)[C@H](CCC(N)=O)NC1=O` [compound 413], the IC50 in assay [1] lay within 1 to 100 nM. Still for that read-out and setting: as for “CDATCQFRKAIDDCQKQAHHSNVPGSVFKECMKQKKKEFKAGK (disulfide 1-5, 14-31) [compound 364]”, the figure is 1 to 100 nM; as for “CDATCQFRKAIDDCKQQAHHSNVPGNSVFEKCMKQKKKEFKAGK (disulfide 1-5, 14-32) [compound 346]”, more than 100 nM; as for “CDATCQFRKAIDDCQKQAHHSNVGNSVFKECMKQKKKEFKAGK (disulfide 1-5, 14-31) [compound 398]”, 1 to 100 nM.

For “CDATCQFRKAIDDCQKQAHHSNVPGNSVKECMKQKKKEFKAGK (disulfide 1-5, 14-31) [compound 362]”, the IC50 in assay [1] was more than 100 nM. The same measure, in the same setting: as for “CDATCQFRKAIDDCQKQAHHSNVPNSVFKECMKQKKKEFKAGK (disulfide 1-5, 14-31) [compound 365]”, the figure is 1 to 100 nM; as for “CDATCQFRKAIDDCQKQAHHSNVPGNSFKECMKQKKKEFKAGK (disulfide 1-5, 14-31) [compound 363]”, 1 to 100 nM.

`CC[C@H](C)[C@H](NC(=O)[C@H](C)NC(=O)[C@H](CCCCN)NC(=O)[C@H](CCCNC(=N)N)NC(=O)[C@H](Cc1ccccc1)NC(=O)[C@H](CCC(N)=O)NC(=O)[C@@H]1CSSC[C@H](N)C(=O)N[C@@H](CC(=O)O)C(=O)N[C@@H](C)C(=O)N[C@@H]([C@@H](C)O)C(=O)N1)C(=O)N[C@@H](CC(=O)O)C(=O)N[C@@H](CC(=O)O)C(=O)N[C@H]1CSSC[C@@H](C(=O)N[C@@H](CCSC)C(=O)N[C@@H](CCCCN)C(=O)N[C@@H](CCC(N)=O)C(=O)N[C@@H](CCCCN)C(=O)N[C@@H](CCCCN)C(=O)N[C@@H](CCCCN)C(=O)N[C@@H](CCC(=O)O)C(=O)N[C@@H](Cc2c[nH]c3ccccc23)C(=O)N[C@@H](CCCCN)C(=O)N[C@@H](C)C(=O)NCC(N)=O)NC(=O)[C@H](C)NC(=O)[C@H](CCCCN)NC(=O)[C@H](Cc2ccccc2)NC(=O)[C@H](C(C)C)NC(=O)[C@H](CO)NC(=O)[C@H](CO)NC(=O)[C@H](Cc2c[nH]cn2)NC(=O)[C@H](CCCCN)NC(=O)[C@H](C)NC(=O)[C@H](CCC(N)=O)NC(=O)[C@H](CCCNC(=N)N)NC(=O)[C@H](C)NC1=O` [compound 434] (H-CDATCQFRKAIDDCARQAKHSSVFKACMKQKKKEWKAG-NH2; disulfide 1-5, 14-27) registered an IC50 in assay [2] of less than 0.01 nM. On the same count and under the same terms, as for “CDATCQFRKAIDDCQKQAHHSNVPGSVFKACMKQKKKEFKAGK (disulfide 1-5, 14-31) [compound 182]”, the figure is 0.01 to 1 nM.

In the case of “CDATCQFRKAIDDCQKQAHHSNVSVFKECMKQKKKEFKAGK (disulfide 1-5, 14-29) [compound 397]”, the IC50 in assay [1] was in the range of 1 to 100 nM. For `CC[C@H](C)[C@H](NC(=O)[C@H](C)NC(=O)[C@H](CCCCN)NC(=O)[C@H](CCCNC(=N)N)NC(=O)[C@H](Cc1ccccc1)NC(=O)[C@H](CCC(N)=O)NC(=O)[C@@H]1CSSC[C@H](N)C(=O)N[C@@H](CC(=O)O)C(=O)N[C@@H](C)C(=O)N[C@@H]([C@@H](C)O)C(=O)N1)C(=O)N[C@@H](CC(=O)O)C(=O)N[C@@H](CC(=O)O)C(=O)N[C@H]1CSSC[C@@H](C(=O)N[C@@H](CCSC)C(=O)N[C@@H](CCCCN)C(=O)N[C@@H](CCC(N)=O)C(=O)N[C@@H](CCCCN)C(=O)N[C@@H](CCCCN)C(=O)N[C@@H](CCCCN)C(=O)N[C@@H](CCC(=O)O)C(=O)N[C@@H](Cc2c[nH]c3ccccc23)C(=O)N[C@@H](CCCCN)C(=O)N[C@@H](C)C(=O)NCC(N)=O)NC(=O)[C@H](C)NC(=O)[C@H](CCCCN)NC(=O)[C@H](Cc2ccccc2)NC(=O)[C@H](C(C)C)NC(=O)[C@H](CO)NC(=O)[C@H](CO)NC(=O)[C@H](Cc2c[nH]cn2)NC(=O)[C@H](Cc2ccc(O)cc2)NC(=O)[C@H](C)NC(=O)[C@H](CO)NC(=O)[C@H](CCCNC(=N)N)NC(=O)[C@H](C)NC1=O` [compound 431] (H-CDATCQFRKAIDDCARSAYHSSVFKACMKQKKKEWKAG-NH2; disulfide 1-5, 14-27), the IC50 in assay [2] is less than 0.01 nM. As to `CC[C@H](C)[C@H](NC(=O)[C@H](C)NC(=O)[C@H](CCCCN)NC(=O)[C@H](CCCNC(=N)N)NC(=O)[C@H](Cc1ccccc1)NC(=O)[C@H](CCC(N)=O)NC(=O)[C@@H]1CSSC[C@H](N)C(=O)N[C@@H](CC(=O)O)C(=O)N[C@@H](C)C(=O)N[C@@H]([C@@H](C)O)C(=O)N1)C(=O)N[C@@H](CC(=O)O)C(=O)N[C@@H](CC(=O)O)C(=O)N[C@H]1CSSC[C@@H](C(=O)N[C@@H](CCSC)C(=O)N[C@@H](CCCCN)C(=O)N[C@@H](CCC(N)=O)C(=O)N[C@@H](CCCCN)C(=O)N[C@@H](CCCCN)C(=O)N[C@@H](CCCCN)C(=O)N[C@@H](CCC(=O)O)C(=O)N[C@@H](Cc2ccccc2)C(=O)N[C@@H](CCCCN)C(=O)N[C@@H](C)C(=O)NCC(=O)N[C@@H](CCCCN)C(=O)O)NC(=O)[C@H](CCC(=O)O)NC(=O)[C@H](CCCCN)NC(=O)[C@H](Cc2ccccc2)NC(=O)[C@H](C(C)C)NC(=O)[C@H](CO)NC(=O)[C@H](CC(N)=O)NC(=O)[C@H](CO)NC(=O)[C@H](Cc2c[nH]cn2)NC(=O)[C@H](Cc2c[nH]cn2)NC(=O)[C@H](C)NC(=O)[C@H](CCC(N)=O)NC(=O)[C@H](CCCCN)NC(=O)[C@H](CCC(N)=O)NC1=O` [compound 396] (H-CDATCQFRKAIDDCQKQAHHSNSVFKECMKQKKKEFKAGK-OH; disulfide 1-5, 14-28), in assay [1], the IC50 was 1 to 100 nM.

The values above are taken from patent US20210395313A1, “PEPTIDE PAC1 ANTAGONISTS” (AMGEN INC., priority 2017, published 2021).
